Ends that are not written are not given here.

This note sets out measurements from patent publication US7563862B2, “Neural regeneration peptides and methods for their use in treatment of brain damage” (Neuren Pharmaceuticals Limited, priority 2001, dated 2009).

The test system of this assay is embryonic striatal cells. Briefly: haptotactic migration assay, striatal cells. As to conditions: dishes coated with 150 ng, 48 hrs. Type of assay: cell-based, rat. From the text: To test the cell adhesion and neuronal migration inducing properties of the NRPs a haptotactic migration cell assay was developed (Lu et al.,2001). For this purpose Transwell® cell culture dishes (Costar) with fitting inserts having pores therein with a 12 μm pore size were used to cultivate striatal and neocortical cells. In general, a test agent was adhered to the surface of a culture dish and an insert having pores was placed in culture medium over but not in contact with the surface of the culture dish. Test cells were placed in the inserts, and any cells migrating through the pores and onto the surface of the culture dish reflected chemattractiveness by the test molecule. Under these conditions, the surface of the culture dish would, over time, release some NRP molecules into the culture medium. It can be appreciated that the concentration of “free” NRP would be greater nearer the surface of the culture dish than at distances farther away from the culture dish, thereby creating a gradient in NRP concentration. […] By counting the number and morphology of such migrant cells, effects of NRPs on neuronal migration and differentiation can be evaluated. […]
For seeding striatal cells, 1.5 ml of Neurobasal/B27 medium was put into the culture dishes and 0.5 ml of NeurobasaVB27 medium was put into the insert. The assay was ready for cell seeding. […]

In the case of “KDPEARRAPGSLHPCLAAS-NH2 [NRP-2 segment KS, 19-mer fragment of NRP-2]”, the “migration induction of striatal neurons” value is “substantial migration induction”.
